The text below walks through data of article PMC8286840, “Identifying SARS-CoV-2 antiviral compounds by screening for small molecule inhibitors of Nsp3 papain-like protease” (Biochemical Journal, 2021).

Structures can show the parent of a compound that is named as a salt. Where two headings read alike, the source gives them in different places.

The target of test [1] is T1, SARS-CoV-2 PLpro (nsp3 1564–1878) (Severe acute respiratory syndrome coronavirus 2, UniProt P0DTD1). The test can be described thus: biochemical. Further details: FRET-quenched peptide (Pro3) cleavage by PLpro, 10 min pre-incubation, slope over 20 min, normalised to no-compound control. The conditions noted are these: low concentration screen, read-out: % of control remaining.

Test [2] has as its target T1, SARS-CoV-2 PLpro (nsp3 1564–1878). The test can be described thus: biochemical. Further details: FRET-quenched peptide (Pro3) cleavage by PLpro, 10 min pre-incubation, slope over 20 min, normalised to no-compound control. The conditions noted are these: high concentration screen, read-out: % of control remaining.

Consider `C[C@]12CC[C@@H]3c4ccc(O)cc4CC[C@H]3[C@@H]1CCC2=O` [Estrone], for which the remaining activity at 1.25 µM in test [1] (Well no.=559) was 101%; in test [1] (Well no.=2038) it was 103%; in test [1] (Well no.=6445), 102%. Moreover, the remaining activity at 3.75 µM in test [2] (Well no.=559) turned out to be 98.9%; in test [2] (Well no.=2038), 104%; in test [2] (Well no.=6445), 96%.

Regarding `CCOC(=O)c1cnc2c(cnn2CC)c1NN=C(C)C` [Etazolate hydrochloride], in test [1] (Well no.=550), the remaining activity at 1.25 µM worked out at 101%. Moreover, the remaining activity at 3.75 µM in test [2] (Well no.=550) is 103%.

As for `CCOC(=O)c1cnc2c(cnn2CC)c1NN=C(C)C` [Etazolate], the remaining activity at 1.25 µM in test [1] (Well no.=2144) stood at 93.8%. Besides, in test [2] (Well no.=2144), the remaining activity at 3.75 µM is 97.1%.

As for `C=C(CC)C(=O)c1ccc(OCC(=O)O)c(Cl)c1Cl` [Ethacrynic Acid], the remaining activity at 1.25 µM in test [1] (Well no.=1865) was found to be 95.6%. Besides, the remaining activity at 3.75 µM in test [2] (Well no.=1865) stood at 94.6%.

Consider `CC[C@@H](CO)NCCN[C@@H](CC)CO` [Ethambutol HCl], for which the remaining activity at 1.25 µM in test [1] (Well no.=5072) is 99.5%. The remaining activity at 3.75 µM in test [2] (Well no.=5072) is 100%.

Turning to `O=S(=O)(O)c1cc(O)ccc1O` [Ethamsylate], in test [1] (Well no.=6763), the remaining activity at 1.25 µM was 103%. Further, in test [2] (Well no.=6763), the remaining activity at 3.75 µM was found to be 89.6%.

For `C#C[C@]1(O)CC[C@H]2[C@@H]3CCc4cc(O)ccc4[C@H]3CC[C@@]21C` [Ethinyl Estradiol], the remaining activity at 1.25 µM in test [1] (Well no.=5333) amounted to 98.9%. In addition, the remaining activity at 3.75 µM in test [2] (Well no.=5333) worked out at 98.6%.

Take `CCc1cc(C(N)=S)ccn1` [Ethionamide]: the remaining activity at 1.25 µM in test [1] (Well no.=5347) came out at 96.4%. Moreover, in test [2] (Well no.=5347), the remaining activity at 3.75 µM came to 95.4%.

Regarding `C#C[C@]1(O)CC[C@H]2[C@@H]3CCC4=CC(=O)CC[C@]4(C)[C@H]3CC[C@@]21C` [Ethisterone], in test [1] (Well no.=2030), the remaining activity at 1.25 µM is 101%. The remaining activity at 3.75 µM in test [2] (Well no.=2030) worked out at 101%.

As for `CCC1(C)CC(=O)NC1=O` (stereo not drawn) [Ethosuximide], in test [1] (Well no.=653), the remaining activity at 1.25 µM came out at 96.4%. Also, the remaining activity at 3.75 µM in test [2] (Well no.=653) worked out at 97.7%.

Turning to `CCOc1ccc2c(c1)C(C)=CC(C)(C)N2` [Ethoxyquin], the remaining activity at 1.25 µM in test [1] (Well no.=4145) stood at 93.7%. Besides, the remaining activity at 3.75 µM in test [2] (Well no.=4145) worked out at 96.9%.

As for `CCC(C(=O)O)C(=O)O` [Ethylmalonic acid], the remaining activity at 1.25 µM in test [1] (Well no.=6875) was determined as 94.5%. In test [2] (Well no.=6875), the remaining activity at 3.75 µM came out at 93.4%.

On to `C#C[C@]1(OC(C)=O)CC[C@H]2[C@@H]3CCC4=C[C@@H](OC(C)=O)CC[C@@H]4[C@H]3CC[C@@]21C` [Ethynodiol diacetate], for which, in test [1] (Well no.=5373), the remaining activity at 1.25 µM stood at 92.3%. Besides, the remaining activity at 3.75 µM in test [2] (Well no.=5373) was 92.2%.

As to `C#C[C@]1(O)CC[C@H]2[C@@H]3CCc4cc(O)ccc4[C@H]3CC[C@@]21C` [Ethynyl Estradiol], in test [1] (Well no.=6487), the remaining activity at 1.25 µM was 103%. In test [2] (Well no.=6487), the remaining activity at 3.75 µM was 102%.

Take `CC(O)(P(=O)(O)O)P(=O)(O)O` [Etidronate]: the figures for the remaining activity at 1.25 µM in test [1] (Well no.=2068) and in test [1] (Well no.=8826) were 96.4% and 85.3%, respectively. Moreover, the values for the remaining activity at 3.75 µM in test [2] (Well no.=2068) and in test [2] (Well no.=8826) were 97.5% and 87.6%, respectively.

Turning to `CCNC1=Nc2ccc(Cl)cc2C(C)(c2ccccc2)O1` (stereo not drawn) [Etifoxine hydrochloride], in test [1] (Well no.=6081), the remaining activity at 1.25 µM stood at 106%. In addition, in test [2] (Well no.=6081), the remaining activity at 3.75 µM stood at 104%.

Regarding `CCc1cccc2c3c([nH]c12)C(CC)(CC(=O)O)OCC3` (stereo not drawn) [Etodolac], in test [1] (Well no.=740), the remaining activity at 1.25 µM amounted to 95.3%. The remaining activity at 3.75 µM in test [2] (Well no.=740) turned out to be 97.9%.

On to `CCOC(=O)c1cncn1[C@H](C)c1ccccc1` [Etomidate], for which the remaining activity at 1.25 µM in test [1] (Well no.=5187) was 100%. Moreover, the remaining activity at 3.75 µM in test [2] (Well no.=5187) was found to be 101%.
